Laboratory results from patent publication US20180078576A1, “SULPHATED XYLANS FOR TREATMENT OR PROPHYLAXIS OF RESPIRATORY DISEASES” (Paradigm Biopharmaceuticals Limited, priority 2007, published 2018).

Tests used:
[1] = biological target: T1, recombinant human IL-5 (rhIL-5) (Homo sapiens, UniProt P05113); experiment: BIAcore inhibition of IL-5 binding to immobilized heparin; conditions: BIAcore chip, titration, FIG. 3B
T1 construct: made in house; host or cells: baculovirus expression system
T1 sequence (P05113 20-134): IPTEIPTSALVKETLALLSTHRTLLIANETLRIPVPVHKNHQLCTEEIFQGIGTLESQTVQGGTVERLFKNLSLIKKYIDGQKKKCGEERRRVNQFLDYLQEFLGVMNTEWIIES
Text: The optical phenomenon of surface plasmon resonance is used to monitor physical interactions between molecules. Passing a solution of a potential protein ligand (e.g. IL-4, IL-5 or eotaxin) over a sensor surface to which a target (e.g. heparin) is coupled monitors the real-time binding of protein ligands to the immobilized target. Detection is achieved by measuring refractive index changes very close to the sensor surface. When the refractive index is altered, the angle at which plasmon resonance occurs changes and this change directly correlates with the amount of protein interacting with the surface. A BIAcore 2000 is conveniently used. […]
Biotinylated heparin is immobilized on the biosensor chip. […] Solutions containing potential protein ligands of interest are injected over the sensor chip surface, and the binding is measured in real time (Fernig, In: Proteoglycan protocols, Ed. R. V. Iozzo, Humana Press, Totowa, N.J., USA, 2001). Baculovirus expressed recombinant human IL-4 (rhIL-4) and baculovirus expressed recombinant human IL-5 (rhIL-5) readily bind to heparin immobilized by this method (see PCT/AU2005/000551). […] Similarly, recombinant human eotaxin (CCL11) expressed in E. coli binds readily to immobilized heparin and binding is specific as there is little eotaxin binding to sensor chips lacking heparin. […]

human MIP-1α = biological target: T2, human MIP-1α (Homo sapiens, UniProt P10147); experiment: MIP-1α induced migration of DMSO treated U937 cells (chemotaxis); assay type: cell-based; conditions: MIP-1α 40 ng/ml
T2 sequence (P10147 24-92): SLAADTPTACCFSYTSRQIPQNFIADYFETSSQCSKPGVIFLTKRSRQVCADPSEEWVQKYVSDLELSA
Procedure: DMSO treated U937 cells were used to examine the cell migration in response to MIP-1α. U937 cells are a promonocytic human cell line originally derived from the pleural effusion of a patient with histiocytic lymphoma. These cells were treated with DMSO (1.2%) for 4 days before being used in chemotaxis experiments. The chemotaxis assays were performed in 96-well Costar chemotaxis plates and human MIP-1α (+/−inhibitor) was added to the bottom chamber and the DMSO treated U937 cells in RPMI/HEPES were added to the top chamber and the plate was incubated at 37° C. for 3 hour to allow cells to move from the top chamber into the bottom. The number of cells migrating into the bottom chamber was quantified by labeling with AQUEOUS ONE (30 μl/well) for 1 hour before absorbance at 490 nm is read. MIP-1α was used at a final concentration of 40 ng/ml and the inhibitors were the sulfated xylan pentasaccharide (10 and 50 μg/ml) and PPS (10 and 50 μg/ml). It is clear from these experiments that both PPS and the sulfated xylan pentasaccharide inhibited MIP-1α stimulated cell movement.

[2] = relative to heparin; cited from earlier work

For Pentosan polysulfate [PPS], the IC50 [1] was 4 to 10 nM, the “Inhibition of MIP-1α stimulated cell movement” value (human MIP-1α; 10 μg/ml) was 48% and the “Inhibition of MIP-1α stimulated cell movement” value (human MIP-1α; 50 μg/ml) was 69%. The “Anticoagulant activity as fraction of that of heparin” value [2] was “about 1/15”.
